Experimental data taken from article PMC9516332 (Frontiers in Oncology, 2022).
Like-named read-outs stand apart in the source and are kept apart here.

Tests used:
[1] = tested on: 134 cancer cell lines
[2] = tested on: AP-1060 (ETV6-NTRK3); assay: Cell viability assay; details: read-out: IC50 in cell proliferation assay
[3] = tested on: 134 cancer cell lines; assay: Cell viability assay (ATPlite, 72 hours), IC50 on cancer cell line panel

CCc1nc(C(N)=O)c(Nc2ccc(N3CCC(N4CCN(C)CC4)CC3)c(OC)c2)nc1NC1CCOCC1 [gilteritinib]
IC50 [1]: 237 nM | IC50 [2]: 417 nM | IC50 ([3]; HEC-6, read-out: IC50 in cell proliferation assay, HEC-6 cell line (EGFR p.A289V)): 1430 nM | IC50 ([3]; Homo sapiens, 769-P, read-out: IC50 in cell proliferation assay, cell line 769-P): 1150 nM | IC50 ([3]; Homo sapiens, 786-0, read-out: IC50 in cell proliferation assay, cell line 786-O): 947 nM | IC50 ([3]; Homo sapiens, A 172, read-out: IC50 in cell proliferation assay, cell line A-172): 1630 nM | IC50 ([3]; Homo sapiens, A204, read-out: IC50 in cell proliferation assay, cell line A-204): 392 nM | IC50 ([3]; Homo sapiens, A498, read-out: IC50 in cell proliferation assay, cell line A-498): 552 nM | IC50 ([3]; Homo sapiens, A549, read-out: IC50 in cell proliferation assay, cell line A-549): 630 nM | IC50 ([3]; Homo sapiens, A704, read-out: IC50 in cell proliferation assay, cell line A-704): 962 nM | IC50 ([3]; Homo sapiens, A-375, read-out: IC50 in cell proliferation assay, cell line A-375 (BRAF p.V600E)): 400 nM | IC50 ([3]; Homo sapiens, A-427, read-out: IC50 in cell proliferation assay, cell line A-427): 248 nM | IC50 ([3]; Homo sapiens, ACHN, read-out: IC50 in cell proliferation assay, cell line ACHN): 294 nM | IC50 ([3]; Homo sapiens, AN3-CA, read-out: IC50 in cell proliferation assay, cell line AN3-CA (FGFR2 p.N549K)): 1220 nM | IC50 ([3]; Homo sapiens, ASPC1, read-out: IC50 in cell proliferation assay, cell line AsPC-1): 545 nM | IC50 ([3]; Homo sapiens, AU565, read-out: IC50 in cell proliferation assay, cell line AU565 (ERBB2 amplification)): 1310 nM | IC50 ([3]; Homo sapiens, BT-20, read-out: IC50 in cell proliferation assay, cell line BT-20): 4220 nM | IC50 ([3]; Homo sapiens, BT-474, read-out: IC50 in cell proliferation assay, cell line BT-474 (ERBB2 amplification)): 13900 nM | IC50 ([3]; Homo sapiens, BT-549, read-out: IC50 in cell proliferation assay, cell line BT-549): 469 nM | IC50 ([3]; Homo sapiens, BXPC-3, read-out: IC50 in cell proliferation assay, cell line BxPC-3): 409 nM | IC50 ([3]; Homo sapiens, C-33-A, read-out: IC50 in cell proliferation assay, cell line C-33 A): 344 nM | IC50 ([3]; Homo sapiens, CAL-27, read-out: IC50 in cell proliferation assay, cell line CAL-27): 366 nM | IC50 ([3]; Homo sapiens, CCF-STTG1, read-out: IC50 in cell proliferation assay, cell line CCF-STTG1): 4060 nM | IC50 ([3]; Homo sapiens, CCRF-CEM, read-out: IC50 in cell proliferation assay, cell line CCRF-CEM): 1690 nM | IC50 ([3]; Homo sapiens, COLO 205, read-out: IC50 in cell proliferation assay, cell line COLO 205 (BRAF p.V600E)): 1060 nM | IC50 ([3]; Homo sapiens, COLO-829, read-out: IC50 in cell proliferation assay, cell line COLO 829 (BRAF p.V600E)): 1220 nM | IC50 ([3]; Homo sapiens, DLD-1, read-out: IC50 in cell proliferation assay, cell line DLD-1): 746 nM | IC50 ([3]; Homo sapiens, DU-4475, read-out: IC50 in cell proliferation assay, cell line DU4475 (BRAF p.V600E)): 1440 nM | IC50 ([3]; Homo sapiens, Daoy, read-out: IC50 in cell proliferation assay, cell line Daoy): 3210 nM | IC50 ([3]; Homo sapiens, DoTc2-4510, read-out: IC50 in cell proliferation assay, cell line DoTc2 4510): 318 nM | IC50 ([3]; Homo sapiens, EOL1, read-out: IC50 in cell proliferation assay, cell line EoL-1 (FIP1L1-PDGFRA)): 33 nM | IC50 ([3]; Homo sapiens, FaDu, read-out: IC50 in cell proliferation assay, cell line FaDu): 459 nM | IC50 ([3]; Homo sapiens, G-361, read-out: IC50 in cell proliferation assay, cell line G-361 (BRAF p.V600E)): 328 nM | IC50 ([3]; Homo sapiens, HCC827, read-out: IC50 in cell proliferation assay, cell line HCC827 (EGFR exon19del)): 223 nM | IC50 ([3]; Homo sapiens, HCC4006, read-out: IC50 in cell proliferation assay, cell line HCC4006 (EGFR exon19del)): 540 nM | IC50 ([3]; Homo sapiens, HCT-15, read-out: IC50 in cell proliferation assay, cell line HCT 15): 829 nM | IC50 ([3]; Homo sapiens, HCT-116, read-out: IC50 in cell proliferation assay, cell line HCT 116): 418 nM | IC50 ([3]; Homo sapiens, HEC-1, read-out: IC50 in cell proliferation assay, HEC-1 cell line): 462 nM | IC50 ([3]; Homo sapiens, HEC-1B, read-out: IC50 in cell proliferation assay, HEC-1-B cell line (EGFR p.A864V)): 270 nM | IC50 ([3]; Homo sapiens, HL-60, read-out: IC50 in cell proliferation assay, HL-60 cell line): 438 nM | IC50 ([3]; Homo sapiens, HT, read-out: IC50 in cell proliferation assay, HT cell line): 3410 nM | IC50 ([3]; Homo sapiens, HT-1080, read-out: IC50 in cell proliferation assay, HT-1080 cell line): 202 nM | IC50 ([3]; Homo sapiens, Hs746T, read-out: IC50 in cell proliferation assay, Hs 746.T cell line (MET exon14skip + amplification)): 512 nM | IC50 ([3]; Homo sapiens, Hs-578T, read-out: IC50 in cell proliferation assay, Hs 578T cell line): 1190 nM | IC50 ([3]; Homo sapiens, HuTu80, read-out: IC50 in cell proliferation assay, HuTu 80 cell line): 509 nM | IC50 ([3]; Homo sapiens, J82, read-out: IC50 in cell proliferation assay, J82 cell line): 372 nM | IC50 ([3]; Homo sapiens, Jurkat E6.1, read-out: IC50 in cell proliferation assay, Jurkat E6.1 cell line): 749 nM | IC50 ([3]; Homo sapiens, K562, read-out: IC50 in cell proliferation assay, K-562 cell line): 1540 nM | IC50 ([3]; Homo sapiens, KATO III, read-out: IC50 in cell proliferation assay, KATO III cell line (FGFR2 amplification)): 718 nM | IC50 ([3]; Homo sapiens, KG-1, read-out: IC50 in cell proliferation assay, KG-1 cell line (FGFR1OP2-FGFR1)): 392 nM | IC50 ([3]; Homo sapiens, KLE, read-out: IC50 in cell proliferation assay, KLE cell line): 317 nM | IC50 ([3]; Homo sapiens, KMS-11, read-out: IC50 in cell proliferation assay, KMS-11 cell line (FGFR3 p.Y373C)): 912 nM | IC50 ([3]; Homo sapiens, KU812, read-out: IC50 in cell proliferation assay, Ku812 cell line): 1510 nM | IC50 ([3]; Homo sapiens, Kasumi 1, read-out: IC50 in cell proliferation assay, Kasumi-1 cell line (KIT p.N822K)): 219 nM | IC50 ([3]; Homo sapiens, LC-2-ad, read-out: IC50 in cell proliferation assay, LC-2/ad cell line (CCDC6-RET)): 158 nM | IC50 ([3]; Homo sapiens, LNCaP-Clone-FGC, read-out: IC50 in cell proliferation assay, LNCaP clone FGC cell line): 6820 nM | IC50 ([3]; Homo sapiens, LS174T, read-out: IC50 in cell proliferation assay, LS174T cell line): 652 nM | IC50 ([3]; Homo sapiens, LS-411N, read-out: IC50 in cell proliferation assay, LS411N cell line (BRAF p.V600E)): 1150 nM | IC50 ([3]; Homo sapiens, LoVo, read-out: IC50 in cell proliferation assay, LoVo cell line): 413 nM | IC50 ([3]; Homo sapiens, MCF7, read-out: IC50 in cell proliferation assay, MCF-7 cell line): 514 nM | IC50 ([3]; Homo sapiens, MDA-MB-231, read-out: IC50 in cell proliferation assay, MDA-MB-231 cell line): 1500 nM | IC50 ([3]; Homo sapiens, MDA-MB-453, read-out: IC50 in cell proliferation assay, MDA-MB-453 cell line): 8820 nM | IC50 ([3]; Homo sapiens, MDA-MB-468, read-out: IC50 in cell proliferation assay, MDA-MB-468 cell line): 4890 nM | IC50 ([3]; Homo sapiens, MG-63, read-out: IC50 in cell proliferation assay, MG-63 cell line): 377 nM | IC50 ([3]; Homo sapiens, MIA PaCa-2, read-out: IC50 in cell proliferation assay, MIA PaCa-2 cell line): 340 nM | IC50 ([3]; Homo sapiens, MKN-45, read-out: IC50 in cell proliferation assay, MKN45 cell line (MET amplification)): 1480 nM | IC50 ([3]; Homo sapiens, MOLM-13, read-out: IC50 in cell proliferation assay, MOLM-13 cell line (FLT3 ITD)): 4 nM
